Data as given in publication PMC7932521, “2-aminobenzimidazoles for leishmaniasis: From initial hit discovery to in vivo profiling” (PLoS Neglected Tropical Diseases, 2021).
Like-named read-outs stand apart in the source and are kept apart here.

Legend:
[1] = Mouse liver microsomal stability; format: in vitro ADME; conditions: for MLM CLint: S1 Data; for microsomal CLint at 0.5 μM: CD1, mouse, liver microsomes
Summary of the method: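 Test compound at 0.5 μM incubated with 0.25 mg/mL human (200-donor pool) or CD1 mouse liver microsomes, pH 7.4, 37°C, started with […]; sampled 0–30 min. LC-MS/MS quantitation against internal standard; t1/2 and Clint (μL/min/mg) from non-linear regression of % remaining versus time.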

[2] = system: Leishmania infantum MHOM/MA(BE)/67/ITMAP263 amastigotes; assay: L. infantum intracellular amastigote assay in PMM; format: cell-based; conditions: for SI: selectivity index (CC50 / IC50): CC50 / L. infantum IC50
Summary of the method: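 Mouse peritoneal macrophages infected with hamster spleen-derived amastigotes (2 h, 37°C), then exposed to 4-fold dilutions from 64 μM (DMSO <1%) for 5 days at 37°C, 5% CO2. Burden scored microscopically after Giemsa staining as percent reduction vs untreated wells; IC50 as geometric mean of ≥2 experiments.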

[3] = system: MRC-5 cells; assay: MRC-5 cytotoxicity; format: cell-based; conditions: S1 Data
[4] = system: PMM (Primary Mouse Macrophages); assay: Cytotoxicity on primary peritoneal mouse macrophages; format: cell-based; conditions: read-out: PMM IC50
Summary of the method: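 Host cells were peritoneal macrophages from Swiss mice, harvested after 2 days of starch stimulation and kept in RPMI-1640 with 5% FCS at 37 °C, 5% CO2. Compounds were tested in 4-fold dilutions from 64 μM, with final DMSO below 1%.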

[5] = Parallel artificial membrane permeability assay (PAMPA); format: in vitro ADME; conditions: S1 Data; for Papp at 5 h, 10 μM: PAMPA, read-out: PAMPA Pe
Summary of the method: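 Compounds at 10μM final in PBS pH 6.5 (donor) against PBS pH 7.4 (acceptor) across lipid-coated membranes, incubated 5 h at 37°C. Donor, acceptor and T0 levels measured by LC-MS/MS to derive effective permeability (Pe); n = 3.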

[6] = Experimental distribution coefficient (eLogD); format: physicochemical; conditions: for chromatographic logD: reverse stationary phase HPLC column (Ascentis RP-Amide)
Summary of the method: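 Lipophilicity derived from retention time on an Ascentis RP-Amide reverse-phase column by LC-MS/MS, compounds at 1.0 μg/mL with internal standard; mobile phases 5% methanol in 10mM ammonium acetate pH 7.4 and 100% methanol. LogD calculated from a linear calibration of eight standards' retention times against known LogD.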

[7] = system: L. major MHOM/SA/85/JISH118; assay: VL/CL panel, intracellular amastigotes; format: cell-based; conditions: Leishmania major; average; read-out: IC-50 L. major MHOM/SA/85/JISH118
Experimental: (§1) For the antileishmania in vitro assays, 3×10^4 PMM/well were seeded in 96-well plates. After 24h, 5×10^5 amastigotes/well were added and incubated for 2h at 37°C. Next, the compounds in 4-fold serial dilutions were added and the plates were further incubated for 5 days (37°C, 5% CO2). Parasite burdens were assessed using an inverted microscope after Giemsa staining. The results were expressed as percent reduction in parasite burdens compared to negative control wells (100% growth) and IC50 values were determined. Values represent the geometric mean of at least two independent experiments. Miltefosine was used as the positive control in all plates.

[8] = system: L. donovani MHOM/ NP/2003/ BPK282/0-cl4; assay: VL/CL panel, intracellular amastigotes; format: cell-based; conditions: Leishmania donovani; average; read-out: IC-50 L. donovani MHOM/ NP/2003/ BPK282/0-cl4
Experimental: as §1

[9] = system: L. braziliensis MHOM/BR/94/H3227; assay: VL/CL panel, intracellular amastigotes; format: cell-based; conditions: Leishmania braziliensis; average; read-out: IC-50 L. braziliensis MHOM/BR/94/H3227
Experimental: as §1

[10] = system: L. infantum LEM3323-cl4 MIL; assay: VL/CL panel, intracellular amastigotes; format: cell-based; conditions: Leishmania infantum, read-out: IC-50 L. infantum LEM3323-cl4 MIL
Experimental: as §1

[11] = system: L. guyanensis MHOM/PE/02/PER 054/0; assay: VL/CL panel, intracellular amastigotes; format: cell-based; conditions: Leishmania guyanensis; average; read-out: IC-50 L. guyanensis MHOM/PE/02/PER 054/0
Experimental: as §1

[12] = system: L. donovani MHOM/NP/03/BPK275/0-cl18; assay: VL/CL panel, intracellular amastigotes; format: cell-based; conditions: Leishmania donovani; average; read-out: IC-50 L. donovani MHOM/NP/03/BPK275/0-cl18
Experimental: as §1

[13] = system: L. major MHOM/IL/81/Friedlin; assay: VL/CL panel, intracellular amastigotes; format: cell-based; conditions: Leishmania major; average; read-out: IC-50 L. major MHOM/IL/81/Friedlin
Experimental: as §1

[14] = system: L. infantum MHOM/BR/2007/WC (L3015); assay: VL/CL panel, intracellular amastigotes; format: cell-based; conditions: Leishmania infantum; average; read-out: IC-50 L. infantum MHOM/BR/2007/WC (L3015)
Experimental: as §1

[15] = system: L. panamensis MHOM/PA/71/LS94; assay: VL/CL panel, intracellular amastigotes; format: cell-based; conditions: Leishmania panamensis; average; read-out: IC-50 L. panamensis MHOM/PA/71/LS94
Experimental: as §1

[16] = system: L. donovani MHOM/ET/2007/LLM-1600; assay: VL/CL panel, intracellular amastigotes; format: cell-based; conditions: Leishmania donovani; average; read-out: IC-50 L. donovani MHOM/ET/2007/LLM-1600
Experimental: as §1

[17] = system: L. infantum LEM3323-cl4 PMM; assay: VL/CL panel, intracellular amastigotes; format: cell-based; conditions: Leishmania infantum, read-out: IC-50 L. infantum LEM3323-cl4 PMM
Experimental: as §1

[18] = system: L. tropica MHOM/AF/2015/HTD7; assay: VL/CL panel, intracellular amastigotes; format: cell-based; conditions: Leishmania tropica; average; read-out: IC-50 L. tropica MHOM/AF/2015/HTD7
Experimental: as §1

[19] = system: L. infantum MHOM/FR/96/LEM3323-cl4; assay: VL/CL panel, intracellular amastigotes; format: cell-based; conditions: Leishmania infantum; average; read-out: IC-50 L. infantum MHOM/FR/96/LEM3323-cl4
Experimental: as §1

[20] = system: L. infantum MHOM/ES/2016/LLM-2346; assay: VL/CL panel, intracellular amastigotes; format: cell-based; conditions: Leishmania infantum; average; read-out: IC-50 L. infantum MHOM/ES/2016/LLM-2346
Experimental: as §1

[21] = system: L. infantum (MHOM/BR/2005/NLC) strain expressing luciferase; format: in vivo, Leishmania infantum; conditions: 40 mg/kg/day oral, 5 days, and washout
Experimental: Groups of female BALB/c mice (n = 5) were infected with 10^8 stationary phase promastigotes of L. infantum chagasi-LUC in a final volume of 100 μL by the intraperitoneal route. At day 14 post-infection, groups were orally treated for 5 days with either drug vehicle only (10% ethanol, 40% PEG400 and 0.4% Tween80 in saline buffer—pH adjusted to 9), miltefosine (40 mg/kg QD) or with compounds 29 and 39 (25 mg/kg QD). Light emission in the ventral abdominal cavity of infected animals was recorded by bioimaging (IVIS Spectrum, Caliper Life Sciences) on 14, 19- and 24-days post-infection. Before imaging, mice received 75 mg/kg VivoGlo™ Luciferin (Promega Corporation) (i.p.) and were anesthetized in a 2% isoflurane atmosphere (Cristália). Animals were then transferred to the imaging chamber and kept in a 2% isoflurane atmosphere. Emitted photons were collected using the high resolution (medium binning) mode. Total photon emission from a defined region of interest (ROI) corresponding to the whole abdominal area was registered. The same ROI was applied to all animals in any given group. Images were acquired 15 min after luciferin injection. Total photon emission from each mouse was quantified with Living Image software version 4.3.1 (Caliper Life Sciences), and results were expressed as the number of photons/s/ROI subtracted from the corresponding ROI in uninfected animals. The detected signal was presented as a pseudocolor image representing light intensity (red = most intense and blue = least intense) and superimposed on the gray scale reference image.

[22] = HEPG2 cytotoxicity; format: cell-based; conditions: human, HepG2 cells; S1 Data
From the text: Supplement pntd.0009196.s001.xlsx, sheet "Complete Dataset" | column: HEPG2 CC50 (uM)

[23] = MRC-5 cytotoxicity; format: cell-based; conditions: human, MRC-5 cells; S1 Data
[24] = S1 Data, read-out: L. infantum IC50
[25] = intracellular amastigotes in PMM, 5 days, read-out: L. infantum IC50
[26] = Leishmania infantum, 120 h, intracellular amastigotes in PMM, 5 days, read-out: L. infantum IC50
[27] = pH 7.4, S1 Data, read-out: MLM CLint
[28] = Leishmania infantum, S1 Data, read-out: L. infantum IC50

Row | Compound | MLM CLint [1] [µL/min/mg] | SI: selectivity index (CC50 / IC50) [2] | IC50 [2, 24] [µM] | CC50 [3] [µM] | IC50 ([4]; S1 Data) [µM] | PAMPA Pe [5] | eLogD ([6]; S1 Data) | IC50 [2, 25] [µM] | eLogD ([6]; experimental, pH 7.4) | IC50 [2, 26] [µM] | other results
1 | CCCn1c(NC(=O)Cc2ccc(F)cc2)nc(c13)cc(C(=O)NC)cc3 [Compound 11] | 66 | 1 | > 64 | 34.8 | > 64 | 9.18 10-6 cm/s | 3.18 |  |  |  | 
2 | CCCn1c(NC(=O)Cc2ccc(F)cc2)nc(c13)cc(C(=O)NC4CC4)cc3 [Compound 12] | 52 | 1 | 45.2 | > 64 | > 64 | 13.10 10-6 cm/s | 3.50 | 45 | 3.5 |  | 
3 | CCCCCCCCCCCCCCCCOP(=O)([O-])OCC[N+](C)(C)C [Miltefosine, reference compound] |  |  |  |  |  |  |  |  |  | 11.2 | IC50 [7]: 24.1 µM; IC50 [8]: 1810 nM; IC50 [9]: 1000 nM; IC50 [10]: 20.3 µM; IC50 [11]: 8.06 µM; IC50 [12]: 2070 nM; IC50 [13]: 11.3 µM; IC50 [14]: 2160 nM; IC50 [15]: 1810 nM; IC50 [16]: 2010 nM; IC50 [17]: 2690 nM; IC50 [18]: 2160 nM; IC50 [19]: 2010 nM; IC50 [20]: 2070 nM; IC50 ([2]; Leishmania infantum, panel sheet, average, read-out: IC-50 L. infantum MHOM/MA/67/ITMAP263): 1.16 µM; parasite load (total ventral bioluminescence) [21]: undetectable levels
4 | CCCn1c(NC(=O)Cc2ccc(F)cc2)nc(c13)cc(C(=O)OC)cc3 [Compound 9] | 1253 | 3 | 6.49 | 18.7 | 16 | 8.66 10-6 cm/s | 4.04 | 6.5 |  |  | 
5 | O=C(Nc1n(C2CC2)c(c3n1)ccc(F)c3)Cc4ccc(Cl)cc4 [Compound 22] | 380 |  | 2.54 | 21.9 | 25.4 | 17.70 10-6 cm/s | 3.98 |  |  |  | 
6 | CC(C)(C)Cn1c(NC(=O)c2ccn[nH]2)nc2ccc(C#N)cc21 [Compound 34, O=C(Nc1nc(ccc(C#N)c2)c2n1CC(C)(C)C)c3ccn[nH]3] |  | 1 |  |  |  |  |  |  | 3.6 | 38 | microsomal CLint at 0.5 μM [1, 27]: 47 µL/min/mg; CC50 [22]: 16 µM; IC50 [2, 28]: 38.3 µM; CC50 [23]: > 64 µM; IC50 ([4]; Mus musculus, Macrophage): 50.8 µM; Papp at 5 h, 10 μM [5]: 11.1 ×10⁻⁶ cm/s; chromatographic logD ([6]; pH 7.4, S1 Data): 3.67
7 | O=C(c1cc(nc(NC(=O)Cc2ccc(F)cc2)n3CCC)c3cc1)N4CCCC4 [Compound 13] | 138 | 6 | 9.79 | > 64 | > 64 | 7.92 10-6 cm/s | 3.99 | 9.8 | 4.0 |  | 
8 | CCCn1c(NC(=O)Cc2ccc(F)cc2)nc(c13)cc(C(=O)N(C)OC)cc3 [Compound 15] | 128 | 5 | 12.7 | 55.5 | > 64 | 9.07 10-6 cm/s | 3.31 | 13 | 3.3 |  | 
9 | N#Cc1ccc2nc(NC(=O)Cc3ccc(F)cc3F)n(CC(F)(F)F)c2c1 [Compound 24, Fc1cc(F)ccc1CC(Nc2nc(ccc(C#N)c3)c3n2CC(F)(F)F)=O] |  |  |  |  |  |  |  |  |  | 10 | microsomal CLint at 0.5 μM [1, 27]: 20 µL/min/mg; microsomal CLint at 0.5 μM ([1]; pH 7.4, mouse liver microsome intrinsic clearance, read-out: MLM Clint): 19.6 µL/min/mg; CC50 [22]: > 64 µM; IC50 [2, 28]: 10.2 µM; CC50 [23]: > 64 µM; IC50 ([4]; Mus musculus, Macrophage): 16 µM; Papp at 5 h, 10 μM [5]: 0.76 ×10⁻⁶ cm/s; chromatographic logD ([6]; pH 7.4, S1 Data): 3.85
